Assay: Administration of pentasaccharide sodium salt in minipigs: iontophoresis vs passive, I.V. and subcutaneous; plasma antifactor Xa (Example 3)
Assay type: in vivo, minipig (YUCATAN strain)
Procedure: Administration in minipigs of pentasaccharide sodium salt by iontophoresis at a set current density
Specialists consider minipigs of the YUCATAN strain to be an excellent animal model for studying the administration in man of medicaments by iontophoresis. This is because the skin structure of this animal is very similar to that of human skin.
The following tests were carried out on the aforementioned minipig with the aim of comparing the administration of the sodium salt of the pentasaccharide used in the previous examples by iontophoresis with administration by subcutaneous or intravenous injection.
For these tests, pairs of adhesive electrode sets were formed, each pair having a donor electrode assembly formed by a reversible negative electrode (active electrode) in contact with a first reservoir element holding the pentasaccharide to be administered, and a passive electrode assembly formed by a positive electrode (back electrode) in contact with a second reservoir element (receptacle element) holding an indifferent electrolyte.
Referring to the figure, each electrode assembly included a disc 1 of polyethylene foam having an axial cylindrical recess 2, the said disc having an adhesive face 3 and a non-adhesive face 4, each of the said faces having the shape of an annular area with a width of two centimetres. The end 5 of the recess in the disc, on the non-adhesive face side, was closed off by an electrode 6 in the form of a silver disc chlorided on one of its faces, the said disc having a cross-sectional area of 20 cm^2. The chlorided face 7 of the electrode disc is turned towards the interior of the recess. […] The said support disc, having a diameter intermediate between that of the electrode 6 and the disc 1, was bonded onto the non-adhesive face of the latter disc. The recess 2 in the disc 1 was filled with a conductive hydrogel 11 forming the reservoir element. The adhesive face 3 of the disc 1 was coated with a pressure-sensitive adhesive designed to be applied to the skin, the said face 3 and the face 12 adjacent to the reservoir element 11 being initially covered with a peelable non-stick polyester protective film which was removed before application to the skin.
In the donor electrode assembly, the negative electrode (active electrode) of chlorided silver contained a quantity of silver chloride equivalent to 1.8 mAh/cm^2, thus allowing the electrode to sustain the quantity of current flowing through the electrodes over the duration of the iontophoretic treatment, namely 1.2 mAh/cm^2. The reservoir element associated with the negative electrode was filled over a thickness of 2 mm, i.e. a quantity of 4 g over the 20 cm^2 of electrode, with a hydrogel based on xanthan and carob extract having 3% of dry extract and containing 2% by weight of sodium salt of the pentasaccharide of formula (I) given above. The donor electrode assembly therefore contained 80 mg of pentasaccharide in a ratio of 4 mg/cm^2 for each of the animals which were treated.
In the passive electrode assembly, the positive electrode (back electrode) made of chlorided silver contained a quantity of silver chloride equivalent to 0.1 mAh/cm^2, and the reservoir element associated with this electrode consisted of the same hydrogel as the one present in the donor electrode assembly, but without pentasaccharide and instead holding 4% by weight of NaCl.
An electrical signal generator, connectable to the electrodes of each electrode assembly pair, made it possible to deliver between the said electrodes a pulsed electrical signal of controlled intensity, having a frequency of 25 kHz and a duty ratio equal to 50%. […]

[1] = test 3b: iontophoresis 0.20 mA/cm^2, 6 hours
[2] = test 3c: I.V. bolus 0.240 mg/kg
[3] = test 3d: subcutaneous 0.200 mg/kg

O=C(O)C1OC(OC2C(COS(=O)(=O)O)OC(OC3C(C(=O)O)OC(OC4C(COS(=O)(=O)O)OC(O)C(NS(=O)(=O)O)C4O)C(OS(=O)(=O)O)C3O)C(NS(=O)(=O)O)C2OS(=O)(=O)O)C(O)C(O)C1OC1OC(COS(=O)(=O)O)C(O)C(O)C1NS(=O)(=O)O (centres unmarked) [pentasaccharide]
Plasma level at 0 minutes (test 3a: passive, no current): 0 "Golden standard" units of ant
Plasma level at 5 minutes (test 3a: passive, no current): 0 "Golden standard" units of ant
Plasma level at 15 minutes (test 3a: passive, no current): 0 "Golden standard" units of ant
Plasma level at 30 minutes (test 3a: passive, no current): 0 "Golden standard" units of ant
Plasma level at 1 hour (test 3a: passive, no current): 0 "Golden standard" units of ant
Plasma level at 2 hours (test 3a: passive, no current): 0 "Golden standard" units of ant
Plasma level at 4 hours (test 3a: passive, no current): 0 "Golden standard" units of ant
Plasma level at 6 hours (test 3a: passive, no current): 0 "Golden standard" units of ant
Plasma level at 8 hours (test 3a: passive, no current): 0 "Golden standard" units of ant
Plasma level at 12 hours (test 3a: passive, no current): 0 "Golden standard" units of ant
Plasma level at 24 hours (test 3a: passive, no current): 0 "Golden standard" units of ant
Plasma level at 30 hours (test 3a: passive, no current): 0 "Golden standard" units of ant
plasma levels, expressed in terms of antifactor Xa, compared with intravenous or subcutaneous injections (test 3b: iontophoresis): higher plasma levels
Plasma level at 0 minutes [1]: 0 "Golden standard" units of ant
Plasma level at 15 minutes [1]: 0.06 ± 0.04 "Golden standard" units of ant
Plasma level at 30 minutes [1]: 0.15 ± 0.12 "Golden standard" units of ant
Plasma level at 1 hour [1]: 0.31 ± 0.15 "Golden standard" units of ant
Plasma level at 2 hours [1]: 0.45 ± 0.2 "Golden standard" units of ant
Plasma level at 4 hours [1]: 0.64 ± 0.18 "Golden standard" units of ant
Plasma level at 6 hours [1]: 0.74 ± 0.16 "Golden standard" units of ant
Plasma level at 8 hours [1]: 0.52 ± 0.13 "Golden standard" units of ant
Plasma level at 12 hours [1]: 0.4 ± 0.08 "Golden standard" units of ant
Plasma level at 24 hours [1]: 0.11 ± 0.03 "Golden standard" units of ant
Plasma level at 30 hours [1]: 0 "Golden standard" units of ant
bioavailability (active principle administered, normalized to quantity present in the electrodes) (test 3b, 80 mg engaged): about 9%
quantity of pentasaccharide administered per mAh (test 3b, for 1 mAh/cm^2): 292 μg/cm^2
quantity of pentasaccharide administered per cm^2 (test 3b, for 1.2 mAh/cm^2): 350 μg/cm^2
quantity of pentasaccharide actually administered by iontophoresis (test 3b, for the 20 cm^2, from areas under the curves): 7 ± 1.3 mg
Plasma level at 0 minutes [2]: 0 "Golden standard" units of ant
Plasma level at 5 minutes [2]: 1.04 ± 0.12 "Golden standard" units of ant
Plasma level at 15 minutes [2]: 0.91 ± 0.13 "Golden standard" units of ant
Plasma level at 30 minutes [2]: 0.65 ± 0.11 "Golden standard" units of ant
Plasma level at 1 hour [2]: 0.53 ± 0.10 "Golden standard" units of ant
Plasma level at 2 hours [2]: 0.30 ± 0.09 "Golden standard" units of ant
Plasma level at 4 hours [2]: 0.29 ± 0.08 "Golden standard" units of ant
Plasma level at 6 hours [2]: 0.22 ± 0.09 "Golden standard" units of ant
Plasma level at 8 hours [2]: 0.17 ± 0.06 "Golden standard" units of ant
Plasma level at 12 hours [2]: 0.07 ± 0.05 "Golden standard" units of ant
Plasma level at 24 hours [2]: 0 "Golden standard" units of ant
Plasma level at 30 hours [2]: 0 "Golden standard" units of ant
Plasma level at 0 minutes [3]: 0 "Golden standard" units of ant
Plasma level at 15 minutes [3]: 0.11 ± 0.04 "Golden standard" units of ant
Plasma level at 1 hour [3]: 0.17 ± 0.01 "Golden standard" units of ant
Plasma level at 2 hours [3]: 0.22 ± 0.04 "Golden standard" units of ant
Plasma level at 4 hours [3]: 0.26 ± 0.06 "Golden standard" units of ant
Plasma level at 6 hours [3]: 0.24 ± 0.01 "Golden standard" units of ant
Plasma level at 8 hours [3]: 0.15 ± 0.07 "Golden standard" units of ant
Plasma level at 12 hours [3]: 0.08 ± 0.03 "Golden standard" units of ant
Plasma level at 24 hours [3]: 0 "Golden standard" units of ant
Plasma level at 30 hours [3]: 0 "Golden standard" units of ant

Source: US5928185A, “Iontophoresis device for the transcutaneous delivery of an active principle such as an anionic oligosaccharide” (Sanofi, priority 1995, dated 1999)
